Consider six compounds from PubChem BioAssay AID2060888 (Molecular Pharmacology Branch, DTP, NCI, 2025).

The test relates to 695427-040-R-J1-PDC complex spheroid viability. Briefly: Anticancer human tumor 695427-040-R-J1-PDC patient-derived colon adenocarcinoma cell line growth inhibition [RAS]. The conditions noted are these: for viability, T/C: stronger effect = lower value. From the text: RAS pathway inhibitors in Combinations in Complex Spheroids
A high-throughput screen of multi-cell type tumor spheroids was designed to identify active combinations of RAS pathway inhibitors and targeted small molecules. Complex spheroids include a stromal component modeled by human endothelial cells (HUVEC) and fibroblasts modeled by human mesenchymal stem cells (MSCs). The concentration ranges selected for each drug and investigational agent were based upon clinically achievable concentrations if the clinical Cmax of the agent was known.
Compounds. The drugs and investigational agents: abemaciclib (NSC768073), cobimetinib (NSC768068), divarasib (GDC6063, NSC841802), docetaxel (NSC628503), GDC-1971 (RLY-1971, NSC841576), gemcitabine (NSC613327), inavolisib (NSC800729), ipatasertib (NSC767898), KB-0742 (NSC834161), MRTX-1133 (NSC836407), osimertinib (NSC779217), RMC-4630 (NSC839698), RMC-6236 (NSC851965), RMC-6291 (NSC852671), Ro-3306 (NSC812927), sapanisertib (NSC764658), SN-38 (NSC673596), staurosporine (NSC755774), SY5609 (NSC837396), and tovorafenib (DAY101, NSC766906), were obtained from the National Cancer Institute (NCI) Developmental Therapeutics Program Chemical Repository. The FDA-approved anticancer drug set is available from the NCI Developmental Therapeutics Program. […] The stock solutions were prepared in dimethyl sulfoxide (DMSO, Sigma-Aldrich, St. Louis, MO, cat. D2650) at 800-fold the tested concentration and stored at -70 degrees C prior to their use. All drugs and investigational agents were tested over a range starting from a high concentration at or near the clinical Cmax and decreasing in half-log increments. If the clinical Cmax for an agent had not been determined, the highest concentration tested was 10 microM.
Cell Culture. All cells were maintained in an incubator at 37 degrees C and 5% CO2 with 95% humidity. The PDC lines were cultured according to standard operating procedures established by the NCI PDMR. All PDCs were thawed and cultured in Matrigel-coated flasks prepared with a working solution of 1X Ham's F-12 nutrient mix, without supplementation (Invitrogen, Waltham, MA, cat. 11765054), 100 U/mL penicillin-streptomycin (Invitrogen, cat. 15140122), and 2.5% Matrigel (Corning Inc., Corning, NY, cat. 354248) for the first three passages. The 362531-283-R-J2-PDC and 782815-120-R-J1-PDC lines were cultured in 6C/Colon 1B media, which includes advanced DMEM/F-12 (Thermo Fisher Scientific, cat. 12634028), 10 mM HEPES (Thermo Fisher Scientific, cat. 15630080), 1X GlutaMAX supplement (Thermo Fisher Scientific, cat. 35050061), 0.1 mg/mL primocin (InvivoGen, San Diego, CA, cat. ant-pm-2), 10% defined fetal bovine serum, heat inactivated (HyClone Laboratories Inc., Logan, UT, cat. SH30070.03HI), 50% L-WRN conditioned media (ATCC, cat. CRL-3276), 1.25 mM N-Acetyl-L-cysteine (Sigma-Aldrich, cat. A9165), 10 mM nicotinamide (Sigma-Aldrich, cat. N0636), 1X B-27 supplement (Thermo Fisher Scientific, cat. 17504044), 1X N-2 supplement (Thermo Fisher Scientific, cat. 17502048), 50 ng/mL human EGF (Thermo Fisher Scientific, cat. PHG0311), and 10 microM Y-27632 dihydrochloride (Tocris Bioscience, cat. 1254). The K12877-001-R-J1-PDC line was cultured in 6I media, which includes all 6C/Colon 1B media plus 10 ng/mL human FGF-10 (PeproTech, cat. 100-26), 1 ng/mL human FGF-2 (PeproTech, cat. 100-18B), 1 µM prostaglandin E2 (Tocris Bioscience, cat. 2296), […] hydrocortisone (Sigma-Aldrich, cat. H4001), and […] bovine insulin (Sigma-Aldrich, cat. I6634). The K86415-001-R-J1-PDC line was cultured in 6D media, which includes all 6C/Colon 1B media components minus the L-WRN conditioned media. The 485176-168-R4-J1-PDC was cultured in PANC media, which includes all 6C/Colon 1B media plus 100 ng/mL human FGF-10 (PeproTech, cat. 100-26), 500 nM SB-431542 (Selleckchem, cat. S1067), and 10 nM gastrin (Tocris Bioscience, cat. 3006). […]

Where “and” joins values, the source holds several entries; their conditions need not be identical. Equal values may be shown once.
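Further: viability read after seven days of drug exposure.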

Turning to `CC(=O)OC12COC1CC(O)C1(C)C(=O)C(O)C3=C(C)C(OC(=O)C(O)C(NC(=O)OC(C)(C)C)c4ccccc4)CC(O)(C(OC(=O)c4ccccc4)C21)C3(C)C` (centres undefined), the viability, T/C is 71.6% [middle of 4 runs] (compound 0.0316 µM); 68.3% [middle of 4 runs] (compound 0.1 µM); 72.2% [middle of 4 runs] (compound 0.316 µM); 76.2% [middle of 4 runs] (compound 1 µM); 90.3% [middle of 4 runs] (compound 10 µM). For the same compound, the half-inhibitory concentration (IC50) (curve of compound) was > 10000 nM.

In the case of `CC1(O)CCCC1n1c(=O)c(C(F)F)cc2cnc(NC3CCN(S(C)(=O)=O)CC3)nc21` (centres undefined), the viability, T/C reads like this: (compound 0.0316 µM) 93.3% [middle of 4 runs]; (compound 0.1 µM) 98.2% [middle of 4 runs]; (compound 0.316 µM) 104% [middle of 4 runs]; (compound 3.16 µM) 123% (2×) and 107% and 97.5%; (compound 10 µM) 64.5% [middle of 4 runs]. Moreover, where the note is “curve of compound”, the IC50 was > 10000 nM.

For `CCC(CC)c1cc(NC2CCC(N)C2)n2nccc2n1` (centres undefined), the viability, T/C is 104% [middle of 4 runs] (compound 0.0316 µM); 96.3% [middle of 4 runs] (compound 0.1 µM); 106% (2×) and 127% and 91% (compound 0.316 µM); 108% [middle of 4 runs] (compound 1 µM); 15.6% [middle of 4 runs] (compound 3.16 µM); 12.6% [middle of 4 runs] (compound 10 µM). Under “curve of compound”, the IC50 is 2170 nM and 1960 nM and 1820 nM.

As for `Cc1nc(N2CCC3(CC2)COC(C)C3N)c(CO)nc1Sc1ccnc(N)c1Cl` (centres undefined), the viability, T/C by setting is: (compound 0.0316 µM) 87% [middle of 4 runs]; (compound 0.1 µM) 85.2% [middle of 4 runs]; (compound 0.316 µM) 73.3% [middle of 4 runs]; (compound 1 µM) 76.3% [middle of 4 runs]; (compound 3.16 µM) 65.7% [middle of 4 runs]; (compound 10 µM) 59.8% [middle of 4 runs]. Besides, under “curve of compound”, the IC50 was > 10000 nM.

Take `NC1c2ccccc2OC12CCN(c1cnc3c(N4CCCc5ncccc54)n[nH]c3n1)CC2` (centres undefined): the viability, T/C by setting is: (compound 0.0316 µM) 78.6% [middle of 4 runs]; (compound 0.1 µM) 64.9% [middle of 4 runs]; (compound 0.316 µM) 64.5% [middle of 4 runs]; (compound 1 µM) 55.7% [middle of 4 runs]; (compound 3.16 µM) 49.4% [middle of 4 runs]; (compound 10 µM) 43.5% [middle of 4 runs].

As for `C=CC(=O)Nc1cc(Nc2nccc(-c3cn(C)c4ccccc34)n2)c(OC)cc1N(C)CCN(C)C` + C#Cc1c(F)ccc2cc(O)cc(-c3ncc4c(N5CC6CCC(C5)N6)nc(OCC56CCCN5CC(F)C6)nc4c3F)c12, the IC50 reads like this: (curve of first compound, second compound 0.0316 µM) 346 nM; (curve of first compound, second compound 0.1 µM) 402 nM; (curve of first compound, second compound 0.316 µM) 240 nM; (curve of first compound, second compound 1 µM) 165 nM; (curve of first compound, second compound 3.16 µM) 50.7 nM; (curve of first compound, second compound 10 µM) < 3.16 nM. Further, the viability, T/C is, setting by setting: (second compound 0.0316 µM, first compound 0.00316 µM) 99.4%; (second compound 0.0316 µM, first compound 0.01 µM) 92.1%; (second compound 0.0316 µM, first compound 0.0316 µM) 92.3%; (second compound 0.0316 µM, first compound 0.1 µM) 69.6%; (second compound 0.0316 µM, first compound 0.316 µM) 53.1%; (second compound 0.0316 µM, first compound 1 µM) 31.5%. Further, the viability, T/C (second compound 0.1 µM, first compound 0.00316 µM) was 93.1%; the viability, T/C (second compound 0.1 µM, first compound 0.01 µM) is 100%; the viability, T/C (second compound 0.1 µM, first compound 0.0316 µM) is 80.9%; the viability, T/C (second compound 0.1 µM, first compound 0.1 µM) was 69.9%; the viability, T/C (second compound 0.1 µM, first compound 0.316 µM) is 58.6%; the viability, T/C (second compound 0.1 µM, first compound 1 µM) is 29.2%. Also, the viability, T/C is 95.8% (second compound 0.316 µM, first compound 0.00316 µM); 81% (second compound 0.316 µM, first compound 0.01 µM); 77.8% (second compound 0.316 µM, first compound 0.0316 µM); 61.5% (second compound 0.316 µM, first compound 0.1 µM); 48.1% (second compound 0.316 µM, first compound 0.316 µM); 27.6% (second compound 0.316 µM, first compound 1 µM). The viability, T/C by setting is: (second compound 1 µM, first compound 0.00316 µM) 72.6%; (second compound 1 µM, first compound 0.01 µM) 79.7%; (second compound 1 µM, first compound 0.0316 µM) 68.9%; (second compound 1 µM, first compound 0.1 µM) 59%; (second compound 1 µM, first compound 0.316 µM) 38.7%; (second compound 1 µM, first compound 1 µM) 23%. The viability, T/C is 57.7% (second compound 3.16 µM, first compound 0.00316 µM); 55.1% (second compound 3.16 µM, first compound 0.01 µM); 56.6% (second compound 3.16 µM, first compound 0.0316 µM); 42.6% (second compound 3.16 µM, first compound 0.1 µM); 30.6% (second compound 3.16 µM, first compound 0.316 µM); 20% (second compound 3.16 µM, first compound 1 µM). The viability, T/C is, setting by setting: (second compound 10 µM, first compound 0.00316 µM) 39.4%; (second compound 10 µM, first compound 0.01 µM) 41.5%; (second compound 10 µM, first compound 0.0316 µM) 37.3%; (second compound 10 µM, first compound 0.1 µM) 32.4%; (second compound 10 µM, first compound 0.316 µM) 25.8%; (second compound 10 µM, first compound 1 µM) 15.7%.

In general, viability, T/C refers to the ratio of treated to control. As usually defined, the IC50 is the concentration needed to halve the response being measured.
